Results published in ChEMBL document CHEMBL3632538, “Novel 5-carboxy-8-HQ based histone demethylase JMJD2A inhibitors: introduction of an additional carboxyl group at the C-2 position of quinoline” (Eur J Med Chem, 2015).
Converted amounts (≈) assume the structure as drawn. Blank lines part the entries; values can stand above or below the molecule they belong to. The source made the active and inactive calls. The rule behind the calls is not given here.

What was measured:
MCF7 = assay: Cytotoxicity against human MCF7 cells assessed as cell viability after 48 hrs by MTT assay; format: functional, cell-based; conditions: MCF7, 48 h
A549 = assay: Cytotoxicity against human A549 cells assessed as cell viability after 48 hrs by MTT assay; format: functional, cell-based; conditions: A549, 48 h
HCT-116 = assay: Cytotoxicity against human HCT116 cells assessed as cell viability after 48 hrs by MTT assay; format: functional, cell-based; conditions: HCT-116, 48 h
[1] = biological target: T1, Lysine-specific demethylase 4A (Homo sapiens, UniProt O75164); assay: Inhibition of recombinant human JMJD2A using biotinylated histone H3 as substrate by AlphaScreen assay
T1 sequence (O75164 whole entry): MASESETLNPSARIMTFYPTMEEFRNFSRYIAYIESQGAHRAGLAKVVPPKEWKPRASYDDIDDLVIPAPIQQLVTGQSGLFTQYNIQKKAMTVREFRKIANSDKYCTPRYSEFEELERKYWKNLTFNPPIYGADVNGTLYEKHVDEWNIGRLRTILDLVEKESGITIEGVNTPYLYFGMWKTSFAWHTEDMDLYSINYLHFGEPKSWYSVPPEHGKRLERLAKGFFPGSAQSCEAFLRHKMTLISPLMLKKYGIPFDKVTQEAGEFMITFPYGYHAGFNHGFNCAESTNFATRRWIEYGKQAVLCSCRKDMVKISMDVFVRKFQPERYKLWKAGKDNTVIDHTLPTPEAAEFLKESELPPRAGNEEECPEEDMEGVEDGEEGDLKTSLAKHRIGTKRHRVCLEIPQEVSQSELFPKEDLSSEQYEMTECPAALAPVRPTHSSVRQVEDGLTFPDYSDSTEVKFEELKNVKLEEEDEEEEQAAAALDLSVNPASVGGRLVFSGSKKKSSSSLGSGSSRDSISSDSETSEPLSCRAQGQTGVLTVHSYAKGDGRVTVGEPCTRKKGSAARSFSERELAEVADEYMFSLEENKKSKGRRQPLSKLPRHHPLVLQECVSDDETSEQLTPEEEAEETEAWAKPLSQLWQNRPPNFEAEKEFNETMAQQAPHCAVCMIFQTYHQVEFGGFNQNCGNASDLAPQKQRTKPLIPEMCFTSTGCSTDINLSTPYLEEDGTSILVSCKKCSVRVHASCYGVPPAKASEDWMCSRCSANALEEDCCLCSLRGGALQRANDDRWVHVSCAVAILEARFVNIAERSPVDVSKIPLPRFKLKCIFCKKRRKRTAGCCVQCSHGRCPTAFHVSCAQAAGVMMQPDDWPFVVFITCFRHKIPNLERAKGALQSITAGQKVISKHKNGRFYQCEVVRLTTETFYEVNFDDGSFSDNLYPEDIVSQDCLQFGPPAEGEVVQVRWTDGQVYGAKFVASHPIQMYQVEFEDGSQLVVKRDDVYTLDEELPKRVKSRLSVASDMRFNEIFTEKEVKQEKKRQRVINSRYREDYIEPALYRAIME

[2] = biological target: T2, Lysine-specific demethylase 4A (Homo sapiens) (UniProt O75164); assay: Inhibition of JMJD2A in human HCT116 cells assessed as induction of H3K9me3 hypermethylation at 5 to 10 uM by Western blot analysis; format: cell-based; conditions: HCT-116
T2 sequence (whole entry): T1 sequence (O75164 whole entry)

[3] = biological target: T2, Lysine-specific demethylase 4A (Homo sapiens); assay: Inhibition of JMJD2A in human HCT116 cells assessed as induction of H3K9me2 hypermethylation at 5 to 10 uM by Western blot analysis; format: cell-based; conditions: HCT-116
[4] = Partition co-efficient, log D of the compound at pH 7.4; format: physicochemical; conditions: buffer
[5] = Permeability of the compound at 10 mM after 4 hrs by PAMPA; format: physicochemical; conditions: read-out: permeability
[6] = biological target: Egl nine homolog 1 (Homo sapiens) (UniProt Q9GZT9); assay: Displacement of F-HIF1alpha from PHD2 (unknown origin) at 50 uM by fluorescence polarization assay relative to control
[7] = Intrinsic aqueous solubility of the compound after 24 hrs by UV spectrophotometric analysis; format: physicochemical; conditions: read-out: Intrinsic_solubility

Egl nine homolog 1 (Homo sapiens), sequence (Q9GZT9 2-426 limits assumed): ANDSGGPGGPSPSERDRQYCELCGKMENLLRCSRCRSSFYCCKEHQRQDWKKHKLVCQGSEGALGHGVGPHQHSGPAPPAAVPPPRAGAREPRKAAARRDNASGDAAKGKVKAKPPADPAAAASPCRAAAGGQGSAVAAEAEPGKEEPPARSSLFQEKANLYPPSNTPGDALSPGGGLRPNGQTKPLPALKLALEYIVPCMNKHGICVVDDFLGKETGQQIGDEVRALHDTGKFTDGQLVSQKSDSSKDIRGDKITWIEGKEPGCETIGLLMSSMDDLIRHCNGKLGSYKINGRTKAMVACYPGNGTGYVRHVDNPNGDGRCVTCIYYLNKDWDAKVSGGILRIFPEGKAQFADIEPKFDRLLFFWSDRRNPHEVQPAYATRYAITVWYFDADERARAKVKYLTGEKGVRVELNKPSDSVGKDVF

SMILES: O=C(NCCCN1CCOCC1)c1ccc2c(C(=O)O)ccc(O)c2n1
IC50 (MCF7): > 100 µM
IC50 (A549): > 100 µM
IC50 (HCT-116): > 100 µM
IC50 [1]: 82 µM

SMILES: Cc1ccccc1NC(=O)c1ccc2c(C(=O)O)ccc(O)c2n1
logD [4]: 3
IC50 (MCF7): > 100 µM
IC50 (A549): 94.6 µM
Papp at 4 h, 10000 µM [5]: 3.9 ×10⁻⁶ cm/s
IC50 (HCT-116): 59.6 µM
IC50 [1]: > 100 µM
solubility at 24 h [7]: 700 µM (≈ 226 µg/mL)

SMILES: O=C(NCc1ccccc1)c1ccc2c(C(=O)O)ccc(O)c2n1
IC50 [1]: > 100 µM

SMILES: O=C(O)c1ccc(O)c2ncccc12
logD [4]: -1.9
IC50 (MCF7): 66.4 µM
IC50 (A549): 48.2 µM
Papp at 4 h, 10000 µM [5]: 2 ×10⁻⁶ cm/s
IC50 (HCT-116): 28.1 µM
inhibition [6]: 66.3%
solubility at 24 h [7]: 1200 µM (≈ 227 µg/mL)

SMILES: O=C(NCCc1c[nH]c2ccccc12)c1ccc2c(C(=O)O)ccc(O)c2n1
logD [4]: 2.9
IC50 (MCF7): > 100 µM
IC50 (A549): > 100 µM
Papp at 4 h, 10000 µM [5]: 3.6 ×10⁻⁶ cm/s
IC50 (HCT-116): 68.3 µM
inhibition [6]: 20.6%
IC50 [1]: 24 µM
solubility at 24 h [7]: 900 µM (≈ 338 µg/mL)

SMILES: O=C(Nc1ccc(OC(F)(F)F)cc1)c1ccc2c(C(=O)O)ccc(O)c2n1
IC50 [1]: > 100 µM

SMILES: O=C(Nc1ccccc1)c1ccc2c(C(=O)O)ccc(O)c2n1
IC50 [1]: > 100 µM

SMILES: COc1ccc(NC(=O)c2ccc3c(C(=O)O)ccc(O)c3n2)cc1
IC50 [1]: > 100 µM

SMILES: Cc1cccc(NC(=O)c2ccc3c(C(=O)O)ccc(O)c3n2)c1
IC50 [1]: > 100 µM

SMILES: CN(C)C(=O)c1ccc2c(C(=O)O)ccc(O)c2n1
logD [4]: 0.4
IC50 (MCF7): > 100 µM
IC50 (A549): > 100 µM
Papp at 4 h, 10000 µM [5]: 3 ×10⁻⁶ cm/s
IC50 (HCT-116): > 100 µM
inhibition [6]: 17.6%
IC50 [1]: 3.7 µM
solubility at 24 h [7]: 3800 µM (≈ 989 µg/mL)

SMILES: O=C(Nc1ccccn1)c1ccc2c(C(=O)O)ccc(O)c2n1
logD [4]: 1.2
IC50 (MCF7): 43.4 µM
IC50 (A549): 72.2 µM
Papp at 4 h, 10000 µM [5]: 2.9 ×10⁻⁶ cm/s
IC50 (HCT-116): 67 µM
inhibition [6]: 24%
IC50 [1]: 2.8 µM
solubility at 24 h [7]: 1200 µM (≈ 371 µg/mL)

SMILES: O=C(O)c1ccc(O)c2nc(C(=O)N3CCOCC3)ccc12
IC50 (MCF7): > 100 µM
IC50 (A549): > 100 µM
IC50 (HCT-116): > 100 µM
inhibition [6]: 9.1%
IC50 [1]: 5.1 µM

SMILES: CN1CCN(C(=O)c2ccc3c(C(=O)O)ccc(O)c3n2)CC1
logD [4]: 0.3
IC50 (MCF7): 95 µM
IC50 (A549): > 100 µM
Papp at 4 h, 10000 µM [5]: 3.3 ×10⁻⁶ cm/s
IC50 (HCT-116): 94.9 µM
inhibition [6]: 18.7%
IC50 [1]: 1.6 µM
solubility at 24 h [7]: 4900 µM (≈ 1550 µg/mL)

Second part, led by results:

inhibition [2]: Active
inhibition [3]: Active
logD [4]: 2.7
Papp at 4 h, 10000 µM [5]: 6.7 ×10⁻⁶ cm/s
inhibition [6]: 25%
IC50 [1]: 19 µM
solubility at 24 h [7]: 1300 µM (≈ 453 µg/mL)
SMILES: O=C(Nc1nc2ccccc2[nH]1)c1ccc2c(C(=O)O)ccc(O)c2n1
IC50 (MCF7): 27.6 µM
IC50 (A549): 21.7 µM
IC50 (HCT-116): 1.5 µM

IC50 [1]: > 100 µM
SMILES: O=C(NC1CCCCC1)c1ccc2c(C(=O)O)ccc(O)c2n1

IC50 [1]: > 100 µM
SMILES: O=C(Nc1ccccc1F)c1ccc2c(C(=O)O)ccc(O)c2n1

IC50 [1]: > 100 µM
SMILES: COc1cccc(NC(=O)c2ccc3c(C(=O)O)ccc(O)c3n2)c1

inhibition [6]: 23.5%
IC50 [1]: 6.2 µM
SMILES: Cc1ccc(NC(=O)c2ccc3c(C(=O)O)ccc(O)c3n2)nc1
IC50 (MCF7): > 100 µM
IC50 (A549): 22.2 µM
IC50 (HCT-116): 72.7 µM

IC50 [1]: > 100 µM
SMILES: O=C(Nc1cccc2ccccc12)c1ccc2c(C(=O)O)ccc(O)c2n1

logD [4]: 1.5
Papp at 4 h, 10000 µM [5]: 2.3 ×10⁻⁶ cm/s
inhibition [6]: 23.9%
IC50 [1]: 1.8 µM
solubility at 24 h [7]: 3600 µM (≈ 1040 µg/mL)
SMILES: CCN(CC)C(=O)c1ccc2c(C(=O)O)ccc(O)c2n1
IC50 (MCF7): > 100 µM
IC50 (A549): > 100 µM
IC50 (HCT-116): 11.1 µM

IC50 [1]: > 100 µM
SMILES: CN(C)c1ccc(NC(=O)c2ccc3c(C(=O)O)ccc(O)c3n2)cc1

IC50 [1]: > 100 µM
SMILES: O=C(Nc1ccc(F)cc1)c1ccc2c(C(=O)O)ccc(O)c2n1

IC50 [1]: > 100 µM
SMILES: Cc1ccc(NC(=O)c2ccc3c(C(=O)O)ccc(O)c3n2)cc1
